Legend:
BCR-ABL fusion protein = target: T1, BCR-ABL fusion protein (Homo sapiens, UniProt P00519+P11274+Q96SW2, E27K); test: Immunoblotting, degradation of BCR-ABL protein in K562 cells; format: cell-based; settings: for inhibition of expression of BCR-ABL and/or CRBN protein: BCR-ABL and/or CRBN positive leukemia K562 cells, to varying degrees
T1 construct: By using BCR-ABL and CRBN positive K562 cell lines; endogenous in cells; host or cells: K562
Method: (§1) Initially, researchers synthesized a 2C compound (FIG. 2A), which is a small molecule with the shortest joining chain (n=1). By using BCR-ABL and CRBN positive K562 cell lines, degradation of ABL and BCR-ABL proteins in the cells under the action of the compound was tested by immunoblotting. […] Then, the researchers tried to extend the joining chain (increasing the value of n).
(§2) In order to test the degradation effect of the compound 4C on c-ABL and BCR-ABL proteins in K562 cells, the researchers performed an immunoblotting experiment. […] In order to exclude the possibility that the compound 4C affected the ABL gene to generate false positive expression, the researchers used RT-qPCR in K562 cells to study the expression of the ABL gene.
The operation method of the immunoblotting experiment is as follows: […]
(§3) The medium was aspirated from the culture; the cells were washed with 1*PBS; and the cells were aspirated.
(§4) A weak RIPA lysate (100 μL) was added to lyse the cells for 40 min.
(§5) The sample was centrifuged at 13000 rpm, 4° C. for 15 min; 80 μl of supernatant was taken and added to 20 μl of loading buffer; the reaction solution was heated at 100° C. for 8 minutes; and the sample was placed on ice and cooled.
(§6) […] of sample was loaded on 10% SDS-PAGE gel. The sample was transferred to a PVDF membrane by a wet process.
(§7) A membrane was placed in 25 ml of blocking buffer and blocked at room temperature for 1 hour.
(§8) The membrane and the primary antibody (according to the appropriate dilution and diluent recommended in the product description) were placed in 10 ml of primary antibody dilution buffer, and incubated overnight at 4° C. and gently shaken from time to time.
(§9) Anti-rabbit IgG, HRP-linked Antibody (#7074, in a ratio of 1:2000) and anti-biotin, HRP-linked Antibody (#7075, in a ratio of 1:1000-1:3000) are diluted with 10 ml of blocking buffer to detect biotinylated protein standards. The membrane was incubated with the diluent, and gently shaken and incubated at room temperature for 1 hour.
(§10) A developer solution and the membrane were incubated together for 1 minute, the excess solution was discarded (the membrane remained moist) and the membrane was exposed.
(§11) Next, we tested the difference in the activity of different configurations of compound 4C in degradation of ABL and BCR-ABL proteins. […] The operation method of the immunoblotting experiment is the same as above.

ABL = target: T2, ABL (Homo sapiens, UniProt P00519); test: Immunoblotting, degradation of ABL protein in K562 cells; format: cell-based; settings: 100 nM, 36 hours after administration
T2 construct: degradation effect of the compound 4C on c-ABL and BCR-ABL proteins in K562 cells; endogenous in cells; host or cells: K562
T2 sequence (P00519 whole entry): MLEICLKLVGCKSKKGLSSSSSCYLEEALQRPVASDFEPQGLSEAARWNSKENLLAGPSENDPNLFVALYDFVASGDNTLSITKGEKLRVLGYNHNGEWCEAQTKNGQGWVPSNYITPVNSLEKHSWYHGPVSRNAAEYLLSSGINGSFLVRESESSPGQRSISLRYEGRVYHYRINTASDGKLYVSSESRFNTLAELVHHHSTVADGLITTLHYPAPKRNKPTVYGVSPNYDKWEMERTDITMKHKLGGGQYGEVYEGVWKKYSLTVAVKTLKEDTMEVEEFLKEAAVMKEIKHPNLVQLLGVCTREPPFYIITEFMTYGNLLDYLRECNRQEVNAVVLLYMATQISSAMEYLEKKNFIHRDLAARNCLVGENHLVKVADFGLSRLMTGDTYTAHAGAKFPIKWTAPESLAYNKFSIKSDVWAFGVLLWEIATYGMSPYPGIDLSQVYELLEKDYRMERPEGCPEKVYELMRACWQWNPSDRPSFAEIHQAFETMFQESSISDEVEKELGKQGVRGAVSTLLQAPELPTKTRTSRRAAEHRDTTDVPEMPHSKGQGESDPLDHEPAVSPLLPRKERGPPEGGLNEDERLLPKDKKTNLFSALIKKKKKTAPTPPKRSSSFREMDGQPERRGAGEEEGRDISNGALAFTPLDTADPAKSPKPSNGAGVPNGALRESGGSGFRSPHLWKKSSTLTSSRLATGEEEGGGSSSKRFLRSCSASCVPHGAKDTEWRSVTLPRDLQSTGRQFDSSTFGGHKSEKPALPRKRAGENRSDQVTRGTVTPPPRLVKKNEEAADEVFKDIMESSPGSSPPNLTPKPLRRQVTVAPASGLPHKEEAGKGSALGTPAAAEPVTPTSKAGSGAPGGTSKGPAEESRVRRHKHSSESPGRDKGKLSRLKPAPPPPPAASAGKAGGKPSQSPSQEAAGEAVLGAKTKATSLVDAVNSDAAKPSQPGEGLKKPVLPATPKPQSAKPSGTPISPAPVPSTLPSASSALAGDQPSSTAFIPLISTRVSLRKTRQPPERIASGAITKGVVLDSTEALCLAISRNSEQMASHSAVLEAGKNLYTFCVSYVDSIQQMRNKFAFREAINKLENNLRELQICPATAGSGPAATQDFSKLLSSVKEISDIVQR
Method: as §1, §2
The operation method of the immunoblotting experiment is as follows:
K562 cells after administration were incubated for 24 hours.
as §3, §4, §5, §6, §7, §8, §9, §10, §11

Row | Structure (SMILES) | inhibition of expression of BCR-ABL and/or CRBN protein (BCR-ABL fusion protein) | level of BCR-ABL fusion protein (WB) (BCR-ABL fusion protein; K562 cells, 100 nM, 36 hours after administration) | level of the BCR-ABL protein (WB) (BCR-ABL fusion protein; K562 cells, 36 hours after administration, dose-effect) | level of the ABL protein (WB) (ABL)
1 | Cc1nc(Nc2ncc(C(=O)Nc3c(C)cccc3Cl)s2)cc(N2CCN(CCOc3ccc(/N=N/c4ccc(C(=O)Nc5cccc6c5CN(C5CCC(=O)NC5=O)C6=O)cc4)cc3)CC2)n1 (stereo not shown) [Compound 2C, (E)-N-(2-chloro-6-methylphenyl)-2-((6-(4-(2-(4-((4-((2-(2,6-dioxopiperidin-3-yl)-1-oxoisoindolin-4-yl)carbamoyl)phenyl)diazenyl)phenoxy)ethyl)piperazin-1-yl)-2-methylpyrimidin-4-yl)amino)thiazole-5-carboxamide] | can inhibit the expression | significantly reduced | down-regulate the level of the BCR-ABL protein in a dose-dependent manner | significantly reduced
2 | Cc1nc(Nc2ncc(C(=O)Nc3c(C)cccc3Cl)s2)cc(N2CCN(CCCOc3ccc(/N=N/c4ccc(C(=O)Nc5cccc6c5CN(C5CCC(=O)NC5=O)C6=O)cc4)cc3)CC2)n1 (stereo not shown) [Compound 3C, (E)-N-(2-chloro-6-methylphenyl)-2-((6-(4-(3-(4-((4-((2-(2,6-dioxopiperidin-3-yl)-1-oxoisoindolin-4-yl)carbamoyl)phenyl)diazenyl)phenoxy)propyl)piperazin-1-yl)-2-methylpyrimidin-4-yl)amino)thiazole-5-carboxamide] | can inhibit the expression | – | – | –
3 | Cc1nc(Nc2ncc(C(=O)Nc3c(C)cccc3Cl)s2)cc(N2CCN(CCCCCOc3ccc(/N=N/c4ccc(C(=O)Nc5cccc6c5CN(C5CCC(=O)NC5=O)C6=O)cc4)cc3)CC2)n1 (stereo not shown) [Compound 5C, (E)-N-(2-chloro-6-methylphenyl)-2-((6-(4-(5-(4-((4-((2-(2,6-dioxopiperidin-3-yl)-1-oxoisoindolin-4-yl)carbamoyl)phenyl)diazenyl)phenoxy)pentyl)piperazin-1-yl)-2-methylpyrimidin-4-yl)amino)thiazole-5-carboxamide] | can inhibit the expression | – | – | –
4 | Cc1nc(Nc2ncc(C(=O)Nc3c(C)cccc3Cl)s2)cc(N2CCN(CCCCCCOc3ccc(/N=N/c4ccc(C(=O)Nc5cccc6c5CN(C5CCC(=O)NC5=O)C6=O)cc4)cc3)CC2)n1 (stereo not shown) [Compound 6C, (E)-N-(2-chloro-6-methylphenyl)-2-((6-(4-(6-(4-((4-((2-(2,6-dioxopiperidin-3-yl)-1-oxoisoindolin-4-yl)carbamoyl)phenyl)diazenyl)phenoxy)hexyl)piperazin-1-yl)-2-methylpyrimidin-4-yl)amino)thiazole-5-carboxamide] | can inhibit the expression | – | – | –

From patent publication US11504385B2, “Proteolysis targeting chimeric molecule, preparation method, and application” (CHINA PHARMACEUTICAL UNIVERSITY, priority 2019, dated 2022)
